In one series the target is T1, Sodium-dependent dopamine transporter (Homo sapiens, UniProt Q01959). The experiment in a line: Displacement of [3H]WIN35428 from human cloned DAT receptor expressed in human HEK293 cells. In kind it is cell-based. As to conditions: read-out: Ki. Background: Displacement assays read how much labelled ligand stays bound in the presence of the test substance.
Sodium-dependent noradrenaline transporter, sequence (P23975 whole entry): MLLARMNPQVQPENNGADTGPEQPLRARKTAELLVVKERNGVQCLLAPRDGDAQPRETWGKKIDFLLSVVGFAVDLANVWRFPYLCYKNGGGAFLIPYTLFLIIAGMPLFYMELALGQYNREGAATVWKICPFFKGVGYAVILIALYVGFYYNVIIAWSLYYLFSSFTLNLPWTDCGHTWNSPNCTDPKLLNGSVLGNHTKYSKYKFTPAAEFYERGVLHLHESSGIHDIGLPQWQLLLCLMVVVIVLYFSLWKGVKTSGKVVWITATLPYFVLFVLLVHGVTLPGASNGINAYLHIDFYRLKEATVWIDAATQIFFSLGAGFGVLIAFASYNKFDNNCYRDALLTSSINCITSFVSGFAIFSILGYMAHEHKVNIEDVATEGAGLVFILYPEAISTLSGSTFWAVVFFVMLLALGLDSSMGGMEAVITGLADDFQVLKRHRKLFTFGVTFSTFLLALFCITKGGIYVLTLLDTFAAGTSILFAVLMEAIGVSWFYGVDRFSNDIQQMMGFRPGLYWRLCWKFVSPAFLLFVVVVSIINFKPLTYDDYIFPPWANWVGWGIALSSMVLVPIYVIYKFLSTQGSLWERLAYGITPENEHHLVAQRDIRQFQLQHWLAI
T1 sequence (Q01959 whole entry): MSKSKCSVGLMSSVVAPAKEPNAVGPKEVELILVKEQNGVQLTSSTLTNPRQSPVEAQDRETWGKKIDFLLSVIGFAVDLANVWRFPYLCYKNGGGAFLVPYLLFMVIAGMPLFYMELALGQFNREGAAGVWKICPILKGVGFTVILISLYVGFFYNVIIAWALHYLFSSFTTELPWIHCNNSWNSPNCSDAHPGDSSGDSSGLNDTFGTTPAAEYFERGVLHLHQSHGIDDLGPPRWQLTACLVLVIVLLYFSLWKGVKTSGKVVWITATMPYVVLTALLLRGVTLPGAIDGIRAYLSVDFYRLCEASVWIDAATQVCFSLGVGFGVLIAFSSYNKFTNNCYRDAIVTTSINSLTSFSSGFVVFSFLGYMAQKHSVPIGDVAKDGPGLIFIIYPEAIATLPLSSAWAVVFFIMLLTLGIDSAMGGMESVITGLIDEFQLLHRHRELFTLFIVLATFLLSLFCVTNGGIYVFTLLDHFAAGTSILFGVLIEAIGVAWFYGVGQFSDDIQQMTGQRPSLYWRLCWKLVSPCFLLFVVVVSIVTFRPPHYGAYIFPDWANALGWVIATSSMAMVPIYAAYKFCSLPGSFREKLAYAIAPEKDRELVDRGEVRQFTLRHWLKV
Sodium-dependent serotonin transporter, sequence (P31645 whole entry): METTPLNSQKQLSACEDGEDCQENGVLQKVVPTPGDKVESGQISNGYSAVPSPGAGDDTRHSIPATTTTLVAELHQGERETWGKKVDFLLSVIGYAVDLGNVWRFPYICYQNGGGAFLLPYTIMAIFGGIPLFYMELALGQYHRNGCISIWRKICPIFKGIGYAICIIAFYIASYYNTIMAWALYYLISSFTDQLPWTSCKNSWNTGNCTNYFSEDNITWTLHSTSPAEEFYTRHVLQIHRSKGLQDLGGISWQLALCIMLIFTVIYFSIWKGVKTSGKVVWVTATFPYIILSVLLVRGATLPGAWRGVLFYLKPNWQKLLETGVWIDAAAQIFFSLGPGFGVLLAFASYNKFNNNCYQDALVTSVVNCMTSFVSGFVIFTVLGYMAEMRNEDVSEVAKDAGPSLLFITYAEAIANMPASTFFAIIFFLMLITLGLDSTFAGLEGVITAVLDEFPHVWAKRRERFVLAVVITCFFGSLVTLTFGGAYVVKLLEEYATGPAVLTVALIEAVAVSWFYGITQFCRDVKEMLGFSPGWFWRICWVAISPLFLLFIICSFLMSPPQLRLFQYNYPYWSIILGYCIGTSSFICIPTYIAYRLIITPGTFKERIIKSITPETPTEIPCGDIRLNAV
On to `COC(=O)[C@H]1[C@@H](c2ccc(C)cc2)C[C@@H]2CC[C@H]1N2C/C=C/I`, for which the Ki was determined as 17 nM. As for `COC(=O)[C@H]1[C@@H](c2ccc(C)cc2)C[C@@H]2CC[C@H]1N2C/C(I)=C/C(F)(F)F`, the Ki amounted to 0.87 nM. Same read-out and setting: next, `COC(=O)[C@H]1[C@@H](c2ccc(C)cc2)C[C@@H]2CC[C@H]1N2C/C=C(\I)C(F)(F)F`: 116 nM.

Staying with this series, now noted: read-out: pKi (converted).
`COC(=O)[C@H]1[C@@H](c2ccc(I)cc2)C[C@@H]2CC[C@H]1N2Cc1ccccc1`: the Ki is 41.7 nM.

Consider `COC(=O)[C@H]1[C@@H](c2ccc(C)c(I)c2)C[C@@H]2CC[C@H]1N2`, for which the Ki was 112 nM.

As to `COC(=O)[C@H]1[C@@H](c2ccc(C)c(I)c2)C[C@@H]2CC[C@H]1N2C`, the Ki is 46.8 nM. For the compound `COC(=O)[C@H]1[C@@H](c2ccc(I)cc2)C[C@@H]2CC[C@H]1N2C/C=C/CF`, the Ki is 0.501 nM. Regarding `COC(=O)[C@H]1[C@@H](c2ccc(I)cc2)C[C@@H]2CC[C@H]1N2C/C=C/I`, the Ki was 30.2 nM. `C[C@H](CF)OC(=O)[C@H]1[C@@H](c2ccc(Cl)cc2)C[C@@H]2CC[C@H]1N2C`: the Ki is 3.24 nM. As to `COC(=O)[C@H]1[C@@H](c2ccc(C)cc2)C[C@@H]2CC[C@H]1N2C/C=C/I`, the Ki is 17 nM. Still for that read-out and setting: next, `O=C(OCCF)[C@H]1[C@@H](c2cccc(/C=C/I)c2)C[C@@H]2CC[C@H]1N2`: 275 nM. Same read-out and setting: the value for `COC(=O)[C@H]1[C@@H](c2ccc(C)cc2)C[C@@H]2CC[C@H]1N2C` was 32.4 nM; that for `C[C@@H](CF)OC(=O)[C@H]1[C@@H](c2ccc(Cl)cc2)C[C@@H]2CC[C@H]1N2C` was 0.676 nM; that for `COC(=O)[C@H]1[C@@H](c2ccccc2)C[C@@H]2CC[C@H]1N2C/C=C/I` was 115 nM.

In the case of `COC(=O)[C@H]1[C@@H](c2ccc(C(C)C)c(I)c2)C[C@@H]2CC[C@H]1N2C`, the Ki is 501 nM.

With `COC(=O)[C@H]1[C@@H](c2ccc(I)cc2)C[C@@H]2CC[C@H]1N2Cc1ccccc1C`, the Ki was 93.3 nM.

Regarding `CCCc1ccc([C@H]2C[C@@H]3CC[C@H]([C@H]2C(=O)OC)N3C)cc1`, the Ki was 501 nM. Consider `C/C=C/CN1[C@H]2CC[C@@H]1[C@@H](C(=O)OC)[C@@H](c1ccc(I)cc1)C2`, for which the Ki is 15.1 nM. Same read-out and setting: next, `COC(=O)[C@H]1[C@@H](c2ccc(F)cc2)C[C@@H]2CC[C@H]1N2CCCF`: 47.9 nM. Still for that read-out and setting: next, `CCCc1ccc([C@H]2C[C@@H]3CC[C@H]([C@H]2C(=O)OC)N3C)cc1I`: 501 nM; `COC(=O)[C@H]1[C@@H](c2ccc(Cl)c(Cl)c2)C[C@@H]2CC[C@H]1N2C/C=C/I`: 28.8 nM; `Cc1ccc([C@H]2C[C@@H]3CC[C@H]([C@H]2C(=O)OCCF)N3C/C=C/I)cc1`: 12 nM. `CN1[C@H]2CC[C@@H]1[C@@H](C(=O)OCc1ccccc1)[C@@H](c1ccc(Cl)c(Cl)c1)C2`: the Ki was 34.7 nM. In the case of `C#CCN1[C@H]2CC[C@@H]1[C@@H](C(=O)OC)[C@@H](c1ccc(I)cc1)C2`, the Ki is 14.1 nM. The same measure, in the same setting: next, `COC(=O)[C@H]1[C@@H](c2ccc(C(C)C)cc2)C[C@@H]2CC[C@H]1N2C`: 501 nM; `CN1[C@H]2CC[C@@H]1[C@@H](C(=O)OCCc1ccc(N=[N+]=[N-])c(I)c1)[C@@H](c1ccc(Cl)cc1)C2`: 14.1 nM; `CCc1ccc([C@H]2C[C@@H]3CC[C@@H](N3)[C@H]2C(=O)OC)cc1I`: 263 nM. Same read-out and setting: the value for `CCc1ccc([C@H]2C[C@@H]3CC[C@H]([C@H]2C(=O)OC)N3C)cc1` was 501 nM; that for `COC(=O)[C@H]1[C@@H](c2ccc(C(C)C)c(I)c2)C[C@@H]2CC[C@H]1N2` was 501 nM. Same read-out and setting: next, `COC(=O)[C@H]1[C@@H](c2ccc(Cl)c(Cl)c2)C[C@@H]2CC[C@H]1N2C`: 6.31 nM; `COC(=O)[C@H]1[C@@H](c2ccc(I)cc2)C[C@@H]2CC[C@H]1N2C`: 35.5 nM.

`COC(=O)[C@H]1[C@@H](c2ccc(C(C)C)cc2)C[C@@H]2CC[C@H]1N2C/C=C/I`: the Ki is 372 nM. Same read-out and setting: next, `CCCCc1ccc([C@H]2C[C@@H]3CC[C@H]([C@H]2C(=O)OC)N3C)cc1I`: 372 nM; `CN1[C@@H]2CC[C@H]1[C@H](C(=O)OCc1ccccc1)[C@@H](OC(c1ccc(F)cc1)c1ccc(F)cc1)C2`: 49 nM.

Turning to `CN1[C@H]2CC[C@@H]1[C@@H](C(=O)OCCc1ccccc1)[C@@H](c1ccc(Cl)c(Cl)c1)C2`, the Ki is 11 nM. Consider `COC(=O)[C@H]1[C@@H](c2ccc(F)cc2)C[C@@H]2CC[C@H]1N2CCF`, for which the Ki was 70.8 nM. Same read-out and setting: the value for `CCCc1ccc([C@H]2C[C@@H]3CC[C@@H](N3)[C@H]2C(=O)OC)cc1I` was 501 nM; that for `CCCc1ccc([C@H]2C[C@@H]3CC[C@H]([C@H]2C(=O)OC)N3C/C=C/I)cc1` was 372 nM. Consider `O=C(OCCF)[C@H]1[C@@H](c2cccc(/C=C\I)c2)C[C@@H]2CC[C@H]1N2`, for which the Ki was 89.1 nM. Turning to `CC(C)OC(=O)[C@@H]1[C@@H](OC(c2ccc(F)cc2)c2ccc(F)cc2)C[C@H]2CC[C@@H]1N2C`, the Ki was 30.9 nM.

`CCCCc1ccc([C@H]2C[C@@H]3CC[C@@H](N3)[C@H]2C(=O)OC)cc1I`: the Ki was 372 nM. Same read-out and setting: the value for `COC(=O)[C@H]1[C@@H](c2ccc(F)cc2)C[C@@H]2CC[C@H]1N2C/C=C/CF` was 9.55 nM. `COC(=O)[C@H]1[C@@H](c2ccccc2)C[C@@H]2CC[C@H]1N2C` [TROPARIL]: the Ki is 33.1 nM.

Turning to `O=C(OCCF)[C@H]1[C@@H](c2ccc(/C=C\I)cc2)C[C@@H]2CC[C@H]1N2`, the Ki is 13.2 nM. Same read-out and setting: next, `CCCCc1ccc([C@H]2C[C@@H]3CC[C@H]([C@H]2C(=O)OC)N3C)cc1`: 501 nM; `COC(=O)[C@H]1[C@@H](c2ccc(I)cc2)C[C@@H]2CC[C@H]1N2CCCF` [IOFLUPANE]: 28.2 nM; `CCc1ccc([C@H]2C[C@@H]3CC[C@H]([C@H]2C(=O)OC)N3C)cc1I`: 339 nM. Same read-out and setting: next, `C=C(Br)CN1[C@H]2CC[C@@H]1[C@@H](C(=O)OC)[C@@H](c1ccc(I)cc1)C2`: 30.2 nM.

Take `CC(C)OC(=O)[C@H]1[C@@H](c2ccc(Cl)c(Cl)c2)C[C@@H]2CC[C@H]1N2C`: the Ki was 18.2 nM.

A further series has as its target Sodium-dependent noradrenaline transporter (Homo sapiens, UniProt P23975). The experiment in a line: Displacement of [3H]nisoxetine from human cloned NET receptor expressed in HEK293 cells. The class given is cell-based.
Conditions: not given
For the compound `COC(=O)[C@H]1[C@@H](c2ccc(C)cc2)C[C@@H]2CC[C@H]1N2C/C=C/I`, the Ki was over 500 nM. Compound `COC(=O)[C@H]1[C@@H](c2ccc(C)cc2)C[C@@H]2CC[C@H]1N2C/C(I)=C/C(F)(F)F` had a Ki of 188 nM. The compound `COC(=O)[C@H]1[C@@H](c2ccc(C)cc2)C[C@@H]2CC[C@H]1N2C/C=C(\I)C(F)(F)F` showed a Ki of 426 nM.

In another series the target is T2, Sodium-dependent dopamine transporter (Rattus norvegicus, UniProt P23977). Briefly: Displacement of [3H]GBR-12935 from rat cloned striatal DAT receptor.
T2 sequence (P23977 whole entry): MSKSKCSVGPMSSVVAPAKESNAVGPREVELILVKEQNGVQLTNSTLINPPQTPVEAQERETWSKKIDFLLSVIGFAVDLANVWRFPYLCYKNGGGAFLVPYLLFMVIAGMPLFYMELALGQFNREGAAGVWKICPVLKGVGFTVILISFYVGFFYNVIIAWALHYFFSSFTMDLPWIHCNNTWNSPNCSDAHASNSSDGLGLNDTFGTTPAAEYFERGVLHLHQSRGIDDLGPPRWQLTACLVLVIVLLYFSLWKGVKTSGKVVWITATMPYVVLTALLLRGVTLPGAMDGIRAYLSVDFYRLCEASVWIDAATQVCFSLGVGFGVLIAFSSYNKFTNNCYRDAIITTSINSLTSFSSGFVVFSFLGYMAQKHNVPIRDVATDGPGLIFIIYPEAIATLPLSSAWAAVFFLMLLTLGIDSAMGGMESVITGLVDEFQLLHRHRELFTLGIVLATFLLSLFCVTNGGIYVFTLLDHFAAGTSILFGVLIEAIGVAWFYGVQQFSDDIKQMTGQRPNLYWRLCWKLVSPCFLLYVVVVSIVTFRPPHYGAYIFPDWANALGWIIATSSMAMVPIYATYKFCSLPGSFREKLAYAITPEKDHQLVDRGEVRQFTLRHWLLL
Conditions: not given
Compound `COC(=O)[C@H]1[C@@H](c2ccc(I)cc2)C[C@@H]2[C@H](C)C[C@H]1N2C` showed an IC50 of 794 nM. The same measure, in the same setting: the value for `COC(=O)[C@H]1[C@@H](c2ccc(I)cc2)C[C@H]2N[C@@H]1C[C@H]2C` was 2450 nM.

Another series concerns the target Sodium-dependent serotonin transporter (Homo sapiens, UniProt P31645). The experiment in a line: Displacement of [3H]Citalopram from human cloned SERT receptor expressed in HEK293 cells. The class given is cell-based.
Conditions: not given
For `COC(=O)[C@H]1[C@@H](c2ccc(C)cc2)C[C@@H]2CC[C@H]1N2C/C(I)=C/C(F)(F)F`, the Ki is over 1000 nM. Still for that read-out and setting: the value for `COC(=O)[C@H]1[C@@H](c2ccc(C)cc2)C[C@@H]2CC[C@H]1N2C/C=C(\I)C(F)(F)F` was 251 nM.

A further series addresses T2, Sodium-dependent dopamine transporter. The experiment in a line: Displacement of [3H]WIN35428 from rat cloned striatal DAT receptor.
Conditions: not given
The compound `COC(=O)[C@H]1[C@@H](c2ccccc2)C[C@@H]2CC[C@H]1N2CC#CCF` gave an IC50 of 3.02 nM.

The compound `COc1ccc([C@H]2C[C@@H]3CC[C@H]([C@H]2C(=O)OC(C)C)N3C)cc1` gave a pIC50 of 7.85. Turning to `Cc1ccc([C@H]2C[C@@H]3CC[C@H]([C@H]2C(=O)OC/C=C/I)N3C)cc1`, the concentration for half-maximal inhibition (IC50) was 191 nM. In turn, `CCOc1ccc([C@H]2C[C@@H]3CC[C@H]([C@H]2C(=O)OC)N3C)cc1` showed a pIC50 of 7.04. Take `CN1[C@H]2CC[C@@H]1[C@@H](c1nnc(-c3ccccc3)o1)[C@@H](c1ccc(Cl)cc1)C2`: the IC50 is 2450 nM. On the same count and under the same terms, next, `CN1[C@H]2CC[C@@H]1[C@@H](c1nc(-c3ccccc3)no1)[C@@H](c1ccc(Cl)cc1)C2`: 794 nM; `CCOC(=O)[C@H]1[C@@H](c2ccc(C)cc2)C[C@@H]2CC[C@H]1N2Cc1ccc(F)cc1`: 29.5 nM; `COC(=O)C1C2CCC(C2)CC1c1ccc(Cl)c(Cl)c1` (stereo not given): 3.31 nM. As to `Cc1ccc([C@H]2C[C@@H]3CC[C@H]([C@H]2C(=O)OC/C=C\I)N3C)cc1`, the half-maximal inhibitory concentration (IC50) is 39.8 nM. The same measure, in the same setting: next, `COC(=O)C1C2CCC(CC1c1ccc(Cl)c(Cl)c1)O2` (stereo not given): 9.77 nM; `CCOC(=O)[C@H]1[C@@H](c2ccc(Cl)cc2)C[C@@H]2CC[C@H]1N2Cc1ccc(F)cc1`: 7.08 nM.

In a further series the target is T1, Sodium-dependent dopamine transporter. The experiment in a line: Ratio of LBT999 Ki to compound Ki for human cloned DAT receptor.
Conditions: not given
Turning to `COC(=O)[C@H]1[C@@H](c2ccc(C)cc2)C[C@@H]2CC[C@H]1N2C/C(I)=C/C(F)(F)F`, the Ratio Ki was 10.

A further series is filed under the species Homo sapiens. Briefly: Selectivity ratio of compound Ki for human cloned NET receptor to Ki for human DAT receptor.
Conditions: not given
As to `COC(=O)[C@H]1[C@@H](c2ccc(C)cc2)C[C@@H]2CC[C@H]1N2C/C(I)=C/C(F)(F)F`, the Ratio Ki came out at 216.

The species named for the next series is Homo sapiens. Briefly: Selectivity ratio of compound Ki for human cloned SERT receptor to Ki for human DAT receptor.
Conditions: not given
Turning to `COC(=O)[C@H]1[C@@H](c2ccc(C)cc2)C[C@@H]2CC[C@H]1N2C/C(I)=C/C(F)(F)F`, the Ratio Ki came out at 10000.

The target in the next series is T1, Sodium-dependent dopamine transporter. Briefly: Ratio of PE2I Ki to compound Ki for human cloned DAT receptor.
Conditions: not given
`COC(=O)[C@H]1[C@@H](c2ccc(C)cc2)C[C@@H]2CC[C@H]1N2C/C(I)=C/C(F)(F)F`: the Ratio Ki was determined as 20.

Tested on in a further series: not listed separately
Briefly: Lipophilicity, log D of the compound in octanol-water at pH 7.4 by reverse-phase HPLC analysis.
Conditions: not given
Turning to `ClCc1ccccc1` [(CHLOROMETHYL)BENZENE], the log distribution coefficient (logD) amounted to 2.3. In the case of `COC(=O)[C@H]1[C@@H](c2ccc(C)cc2)C[C@@H]2CC[C@H]1N2C/C=C/I`, the logD came out at 4.9.

The compound `COC(=O)[C@H]1[C@@H](c2ccc(C)cc2)C[C@@H]2CC[C@H]1N2C/C=C/CF` registered a log distribution coefficient (logD) of 4.1. Same read-out and setting: the value for `COC(=O)[C@H]1[C@@H](c2ccc(C)cc2)C[C@@H]2CC[C@H]1N2C/C(I)=C/C(F)(F)F` was 5.5. The same measure, in the same setting: the value for `COC(=O)[C@H]1[C@@H](c2ccc(C)cc2)C[C@@H]2CC[C@H]1N2C/C=C(\I)C(F)(F)F` was 5.3.

As for `Nc1ccccc1` [ANILINE], the log distribution coefficient (logD) was 0.9. `O=[N+]([O-])c1cccc(O)c1` [3-NITRO-PHENOL] showed a logD of 2. On the same count and under the same terms, next, `Oc1ccc2ccccc2c1` [BETANAPHTHOL]: 2.7; `c1ccc(-c2ccccc2)cc1` [BIPHENYL]: 4.01.

The IC50 is the concentration that inhibits the measured activity by half. The term pIC50 denotes −log10 of the IC50, conventionally taken in molar units. A higher pIC50 goes with a low IC50. Usually logD stands for the decadic logarithm of the distribution of all forms, ionised or not, between an organic phase and buffer at a given pH. A lower logD goes with a more hydrophilic compound.

For the origin of these results see ChEMBL document CHEMBL1944569, “QSAR study and synthesis of new phenyltropanes as ligands of the dopamine transporter (DAT)” (Bioorg Med Chem, 2012).
